# Source: patent US8557796B2, “Substituted 1-oxa-2,8-diaza-spiro [4,5] dec-2-ene derivatives and related treatment methods” (Gruenenthal GmbH, priority 2001, dated 2013)
# System: batrachotoxin (BTX) binding site (binding site 2) of the sodium channel
# Assay: Bond test on the sodium channel, binding site 2 (BTX bond), [3H]-batrachotoxinin A20 α-benzoate displacement
# Details: rat cerebrocortex synaptosomes
structure (smiles),measurement,setting,value
O=C(C1=NOC2(CCN(S(=O)(=O)c3cccc(C(F)(F)F)c3)CC2)C1)N1CCN(c2cc(C(F)(F)F)ccn2)CC1 [Example 119],"BTX bond, 10 μM, % inhibition",,72%
"O=C(NCc1cccs1)C1=NOC2(CCN(C(=O)c3cccc4ccccc34)CC2)C1 [Example 192, 8-(naphthalene-1-carbonyl)-1-oxa-2,8-diaza-spiro[4,5]dec-2-ene-3-carboxylic acid (thiophen-2-ylmethyl)-amide]","BTX bond, 10 μM, % inhibition",,87%
"O=C(NCCCc1ccccc1)C1=NOC2(CCN(S(=O)(=O)c3ccc(F)cc3)CC2)C1 [Example 193, 8-(4-fluoro-benzenesulphonyl)-1-oxa-2,8-diaza-spiro[4,5]dec-2-ene-3-carboxylic acid (3-phenyl-propyl)-amide]","BTX bond, 10 μM, % inhibition",,66%
"Cc1ccc(S(=O)(=O)N2CCC3(CC2)CC(C(=O)NC2CCCC2OCc2ccccc2)=NO3)cc1 (centres unmarked) [Example 67, 8-(toluene-4-sulphonyl)-1-oxa-2,8-diaza-spiro[4,5]dec-2-ene-3-carboxylic acid (2-benzyloxy-cyclopentyl)-amide]","BTX bond, 10 μM, % inhibition",10 µM,80%
"Cc1ccc(F)cc1S(=O)(=O)N1CCC2(CC1)CC(C(=O)NCCN(C)C)=NO2 [Example 37, 8-(5-fluoro-2-methyl-benzenesulphonyl)-1-oxa-2,8-diaza-spiro[4,5]dec-2-ene-3-carboxylic acid (2-dimethylamino-ethyl)-amide]","BTX bond, 10 μM, % inhibition",,70%
"COc1ccc(Br)cc1S(=O)(=O)N1CCC2(CC1)CC(C(=O)NC1CCCC1)=NO2 [Example 173, 8-(5-bromo-2-methoxy-benzenesulphonyl)-1-oxa-2,8-diaza-spiro[4,5]dec-2-ene-3-carboxylic acid cyclopentylamide]","BTX bond, 10 μM, % inhibition",,62%
"COc1ccc(S(=O)(=O)N2CCC3(CC2)CC(C(=O)NC(C)Cc2ccc(Cl)cc2)=NO3)cc1 (centres unmarked) [Example 164, 8-(4-methoxy-benzenesulphonyl)-1-oxa-2,8-diaza-spiro[4,5]dec-2-ene-3-carboxylic acid [2-(4-chloro-phenyl)-1-methyl-ethyl]-amide]","BTX bond, 10 μM, % inhibition",,52%
"N#CCCN(Cc1cccnc1)C(=O)C1=NOC2(CCN(S(=O)(=O)c3cc(Cl)ccc3Cl)CC2)C1 [Example 99, 8-(2,5-dichloro-benzenesulphonyl)-1-oxa-2,8-diaza-spiro[4,5]dec-2-ene-3-carboxylic acid (2-cyano-ethyl)-pyridin-3-ylmethyl-amide]","BTX bond, 10 μM, % inhibition",,50%
"Cc1cc(C(=O)N2CCC3(CC2)CC(C(=O)NCc2ccccc2)=NO3)c(C)o1 [Example 217, 8-(2,5-dimethyl-furan-3-carbonyl)-1-oxa-2,8-diaza-spiro[4,5]dec-2-ene-3-carboxylic acid benzylamide]","BTX bond, 10 μM, % inhibition",,51%
"CCOC(=O)C1CCCCN1C(=O)C1=NOC2(CCN(C(=O)c3cc(C(C)(C)C)oc3C)CC2)C1 (centres unmarked) [Example 179, 1-[8-(5-tert-butyl-2-methyl-furan-3-carbonyl)-1-oxa-2,8-diaza-spiro[4,5]dec-2-ene-3-carbonyl]-piperidine-2-carboxylic acid ethyl ester]","BTX bond, 10 μM, % inhibition",,55%
"O=C(NCc1cccs1)C1=NOC2(CCN(S(=O)(=O)c3ccc(Cl)cc3)CC2)C1 [Example 127, 8-(4-chloro-benzenesulphonyl)-1-oxa-2,8-diaza-spiro[4,5]dec-2-ene-3-carboxylic acid (thiophen-2-ylmethyl)-amide]","BTX bond, 10 μM, % inhibition",,70%
"O=C(NCc1cccs1)C1=NOC2(CCN(C(=O)c3ccc(F)c(Cl)c3)CC2)C1 [Example 184, 8-(3-chloro-4-fluorobenzoyl)-1-oxa-2,8-diaza-spiro[4,5]dec-2-ene-3-carboxylic acid (thiophen-2-ylmethyl)-amide]","BTX bond, 10 μM, % inhibition",,73%
O=C(NCc1cccs1)C1=NOC2(CCN(C(=O)CCCOc3ccccc3)CC2)C1 [Example 183],"BTX bond, 10 μM, % inhibition",,68%
"Cc1ccc(S(=O)(=O)N2CCC3(CC2)CC(C(=O)N(CCC#N)Cc2ccccc2)=NO3)cc1 [Example 28, 8-(toluene-4-sulphonyl)-1-oxa-2,8-diaza-spiro[4,5]dec-2-ene-3-carboxylic acid benzyl-(2-cyano-ethyl)-amide]","BTX bond, 10 μM, % inhibition",,52%
COc1ccc(OC)c(CN(Cc2ccco2)C(=O)C2=NOC3(CCN(S(=O)(=O)c4ccc(F)cc4)CC3)C2)c1 [Example 160],"BTX bond, 10 μM, % inhibition",,75%
"O=C(C1=NOC2(CCN(S(=O)(=O)c3cccc(C(F)(F)F)c3)CC2)C1)N1CCN(Cc2ccc3ccccc3c2)CC1 [Example 35, (4-naphthalen-2-ylmethyl-piperazin-l-yl)-[8-(3-trifluoromethyl-benzenesulphonyl)-1-oxa-2,8-diaza-spiro[4,5]dec-2-en-3-yl]-methanone]","BTX bond, 10 μM, % inhibition",,50%
"O=C(Nc1ccccc1)C1=NOC2(CCN(C(=O)c3ccc(Br)cc3)CC2)C1 [Example 181, 8-(4-bromo-benzoyl)-1-oxa-2,8-diaza-spiro[4,5]dec-2-ene-3-acarboxylic cid phenylamide]","BTX bond, 10 μM, % inhibition",,50%
O=C(NC1CCCC1)C1=NOC2(CCN(C(=O)c3ccccc3COC(=O)c3ccccc3)CC2)C1 [Example 188],"BTX bond, 10 μM, % inhibition",,77%
"O=C(NCc1ccccc1)C1=NOC2(CCN(S(=O)(=O)c3cccs3)CC2)C1 [Example 136, 8-(thiophene-2-sulphonyl)-1-oxa-2,8-diaza-spiro[4,5]dec-2-ene-3-carboxylic acid benzylamide]","BTX bond, 10 μM, % inhibition",,44%
"Cc1ccc(C(C)NC(=O)C2=NOC3(CCN(S(=O)(=O)c4ccc(C)cc4)CC3)C2)cc1 (centres unmarked) [Example 45, 8-(toluene-4-sulphonyl)-1-oxa-2,8-diaza-spiro[4,5]dec-2-ene-3-carboxylic acid (1-p-tolyl-ethyl)-amide]","BTX bond, 10 μM, % inhibition",,49%
"Cc1ccc(F)cc1S(=O)(=O)N1CCC2(CC1)CC(C(=O)NCc1cccs1)=NO2 [Example 150, 8-(5-fluoro-2-methyl-benzenesulphonyl)-1-oxa-2,8-diaza-spiro[4,5]dec-2-ene-3-carboxylic acid (thiophen-2-ylmethyl)-amide]","BTX bond, 10 μM, % inhibition",,86%
"Cc1cccc(N2CCN(C(=O)C3=NOC4(CCN(S(=O)(=O)c5cccs5)CC4)C3)CC2C)c1 (stereo not drawn) [Example 31, (3-methyl-4-m-tolyl-piperazin-l-yl)-[8-(thiophene-2-sulphonyl)-1-oxa-2,8-diaza-spiro[4,5]dec-2-en-3-yl]-methanone]","BTX bond, 10 μM, % inhibition",,80%
"CC(Oc1ccccc1)C(=O)N1CCC2(CC1)CC(C(=O)NCc1ccccc1)=NO2 (centres unmarked) [Example 149, 8-(2-phenoxy-propionyl)-1-oxa-2,8-diaza-spiro[4,5]dec-2-ene-3-carboxylic acid benzylamide]","BTX bond, 10 μM, % inhibition",,40%
"O=C(C1=NOC2(CCN(S(=O)(=O)c3cccc(C(F)(F)F)c3)CC2)C1)N1CCN(CCCc2ccccc2)CC1 [Example 83, [4-(3-phenyl-propyl)-piperazin-1-yl]-[8-(3-trifluoromethyl-benzenesulphonyl)-1-oxa-2,8-diaza-spiro[4,5]dec-2-en-3-yl]-methanone]","BTX bond, 10 μM, % inhibition",,72%
"Cc1ccc(S(=O)(=O)N2CCC3(CC2)CC(C(=O)NC2CCCC2OCc2ccccc2)=NO3)cc1 (centres unmarked) [Example 73, 8-(toluene-4-sulphonyl)-1-oxa-2,8-diaza-spiro[4,5]dec-2-ene-3-carboxylic acid (2-benzyloxy-cyclopentyl)-amide]","BTX bond, 10 μM, % inhibition",10 µM,75%
"Cc1ccc(C(C)NC(=O)C2=NOC3(CCN(S(=O)(=O)c4cccs4)CC3)C2)cc1 (centres unmarked) [Example 23, 8-(thiophene-2-sulphonyl)-1-oxa-2,8-diaza-spiro[4,5]dec-2-ene-3-carboxylic acid (1-p-tolyl-ethyl)-amide]","BTX bond, 10 μM, % inhibition",,60%
"CC(=O)N1CCC2(CC1)CC(C(=O)NCc1ccccc1)=NO2 [Example 48, 8-acetyl-1-oxa-2,8-diaza-spiro[4,5]dec-2-ene-3-carboxylic acid benzylamide]","BTX bond, 10 μM, % inhibition",,43%
"O=C(NCc1ccccc1)C1=NOC2(CCN(C(=O)COc3cccc(Cl)c3)CC2)C1 [Example 166, 8-[2-(3-chloro-phenoxy)-acetyl]-1-oxa-2,8-diaza-spiro[4,5]dec-2-ene-3-carboxylic acid benzylamide]","BTX bond, 10 μM, % inhibition",,58%
"COC(=O)C(Cc1c[nH]c2ccccc12)NC(=O)C1=NOC2(CCN(S(=O)(=O)c3ccc(OC(F)(F)F)cc3)CC2)C1 (centres unmarked) [Example 1, 3-(1H-indo1-3-yl)-2-{[8-(4-trifluoromethoxy-benzene-sulphonyl)-1-oxa-2,8-diaza-spiro[4,5]dec-2-ene-3-carbonyl]-amino}-propionic acid methyl ester]","BTX bond, 10 μM, % inhibition",,68%
"CCCC(=O)N1CCC2(CC1)CC(C(=O)Nc1ccccc1)=NO2 [Example 85, 8-butyryl-1-oxa-2,8-diaza-spiro[4,5]dec-2-ene-3-carboxylic acid phenylamide]","BTX bond, 10 μM, % inhibition",,62%
"O=C(Nc1ccccc1)C1=NOC2(CCN(C(=O)c3cccc(Cl)c3Cl)CC2)C1 [Example 172, 8-(2,3-dichloro-benzoyl)-1-oxa-2,8-diaza-spiro[4,5]dec-2-ene-3-carboxylic acid phenylamide]","BTX bond, 10 μM, % inhibition",,60%
"CN(Cc1cccnc1)C(=O)C1=NOC2(CCN(S(=O)(=O)c3cc(Cl)ccc3Cl)CC2)C1 [Example 92, 8-(2,5-dichloro-benzenesulphonyl)-1-oxa-2,8-diaza-spiro[4,5]dec-2-ene-3-carboxylic acid methyl-pyridin-3-ylmethyl-amide]","BTX bond, 10 μM, % inhibition",,65%
"CCN(CCNC(=O)C1=NOC2(CCN(S(=O)(=O)N(C)C)CC2)C1)c1cccc(C)c1 [Example 216, 8-dimethylsulphamoyl-1-oxa-2,8-diaza-spiro[4,5]dec-2-ene-3-carboxylic acid [2-(ethyl-m-tolyl-amino)-ethyl]amide]","BTX bond, 10 μM, % inhibition",,64%
"Cc1ccc(S(=O)(=O)N2CCC3(CC2)CC(C(=O)N(CCc2ccccc2)Cc2ccccc2)=NO3)cc1 [Example 18, 8-(toluene-4-sulphonyl)-1-oxa-2,8-diaza-spiro[4,5]dec-2-ene-3-carboxylic acid benzyl-phenethyl-amide]","BTX bond, 10 μM, % inhibition",,53%
"O=C(NCc1ccccc1)C1=NOC2(CCN(C(=O)c3ccc(Br)cc3)CC2)C1 [Example 212, 8-(4-bromo-benzoyl)-1-oxa-2,8-diaza-spiro[4,5]dec-2-ene-3-carboxylic acid benzylamide]","BTX bond, 10 μM, % inhibition",,58%
